# Where two headings read alike, the source gives them in different places.
# Legend:
# [1] = molecular target: T1, hAR (human androgen receptor) (Homo sapiens, UniProt P10275); assay: Competitive binding analysis on baculovirus/Sf9 generated hAR extracts with 3H-DHT tracer
# T1 construct: made in house; host or cells: baculovirus/Sf9 insect cells
# T1 sequence (P10275 1-920): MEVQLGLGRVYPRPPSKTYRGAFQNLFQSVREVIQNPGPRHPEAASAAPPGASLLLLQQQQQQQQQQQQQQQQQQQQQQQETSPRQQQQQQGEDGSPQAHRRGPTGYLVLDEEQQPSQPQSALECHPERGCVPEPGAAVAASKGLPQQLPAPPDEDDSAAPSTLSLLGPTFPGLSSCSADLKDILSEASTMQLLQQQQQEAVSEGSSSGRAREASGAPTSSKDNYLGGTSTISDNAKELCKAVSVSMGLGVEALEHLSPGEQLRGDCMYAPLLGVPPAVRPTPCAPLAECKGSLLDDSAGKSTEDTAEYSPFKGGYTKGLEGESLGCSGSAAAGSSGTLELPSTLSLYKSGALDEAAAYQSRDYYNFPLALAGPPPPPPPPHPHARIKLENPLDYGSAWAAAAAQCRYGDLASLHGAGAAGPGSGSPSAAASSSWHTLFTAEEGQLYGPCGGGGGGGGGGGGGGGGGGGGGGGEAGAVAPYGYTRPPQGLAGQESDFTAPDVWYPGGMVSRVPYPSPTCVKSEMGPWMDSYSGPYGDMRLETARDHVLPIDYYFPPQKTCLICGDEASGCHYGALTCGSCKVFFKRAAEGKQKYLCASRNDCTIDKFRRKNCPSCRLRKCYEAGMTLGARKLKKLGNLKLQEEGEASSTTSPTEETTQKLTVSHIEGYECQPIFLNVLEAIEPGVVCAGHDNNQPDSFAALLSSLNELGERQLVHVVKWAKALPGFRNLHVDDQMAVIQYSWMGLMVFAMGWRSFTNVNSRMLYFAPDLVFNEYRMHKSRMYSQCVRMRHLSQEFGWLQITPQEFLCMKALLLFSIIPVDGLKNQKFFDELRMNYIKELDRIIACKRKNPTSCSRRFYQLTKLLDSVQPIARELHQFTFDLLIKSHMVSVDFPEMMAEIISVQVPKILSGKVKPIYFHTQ
# Procedure: The description below describes how the assay was carried out.
# Competitive binding analysis was performed on baculovirus/Sf9 generated hAR extracts in the presence or absence of different concentrations of test agent and a fixed concentration of ^3H-dihydrotestosterone (^3H-DHT) as tracer. This binding assay method is a modification of a protocol previously described (Liao S., et. al. J. Steroid Biochem. 20:11-17 1984). Briefly, progressively decreasing concentrations of compounds are incubated in the presence of hAR extract (Chang et al. P.N.A.S. Vol. 89, pp. 5546-5950,1992), hydroxylapatite, and 1 nM ^3 H-DHT for one hour at 4° C. Subsequently, the binding reactions are washed three times to completely remove excess unbound ^3 H-DHT. hAR bound ^3H-DHT levels are determined in the presence of compounds (=i.e competitive binding) and compared to levels bound when no competitor is present (=i.e. maximum binding). Compound binding affinity to the hAR is expressed as the concentration of compound at which one half of the maximum binding is inhibited.
# [2] = system: Male C3H/HeN mice; assay: Modified telogen conversion assay (hair growth, induction of anagen); assay type: in vivo; conditions: topical twice daily for 4 weeks
# Excerpt: It has been discovered that male C3H/HeN mice may be used in the telogen conversion assay, when evaluating anti-androgen test compounds. Thus, the model relates to a modification of the existing telogen conversion assay. Male C3H/HeN mice approximately 7 weeks old are utilized. These animals are also uniformly in telogen, like their female counterparts. However, once shaven, the androgens inherently present in these male mice inhibit the conversion of the hair follicles to the anagen phase. An anti-androgen will block this androgenic effect and the follicles will convert to anagen, like their female counterparts.
# Male C3H/HeN mice, 6 to 7 weeks old (Charles River Laboratories, Raleigh, N.C.) were used for the study. Fur was clipped from the dorsal region of the mice prior to initiation of the study. Only mice with pink skin, a visual indication of the telogen phase, were selected for inclusion in the study.
# The test compound was dissolved in a vehicle consisting of propylene glycol (30%) and ethanol (70%) to achieve a concentration of either 0.2% w/v, 0.5% w/v, 1% w/v or 3% w/v. The relevant dose was applied topically to the clipped dorsal region of the mice in one test group (7-10 mice) in a volume of 20 μl/cm^2. A third group of animals received only the vehicle to serve as a control. Treatments were applied twice daily for 4 weeks.
# The treatment area was observed and graded every other day for signs of hair growth. The hair growth response was quantified by recording, for each animal, the day on which signs of hair growth first appeared over the treated area. The first sign of anagen was the darkening of skin color as melanocytes in the follicles started to synthesize melanin in preparation for the production of pigmented hairs. […] The percentage of mice showing signs of hair growth in both the treatment group and the control group is graphically depicted in FIG. 1.
Structure (SMILES),IC50 [1] [µM],rate of hair growth versus vehicle control group ([2]; 5% test group),hair growth (induction of anagen) ([2]; concentration of 1%),"IC50 ([1]; hAR extract, 1 nM 3H-DHT, one hour at 4° C., mean of multiple tests, read-out: AR Binding IC50) [µM]"
"C[C@H](O)CC[C@H](C)Oc1ccc(C#N)c(C(F)(F)F)c1 [Example 23, (1S,4S)-4-(4-Hy-droxy-1-methylpentyl-oxy)-2-tri-fluoromethyl-benzonitrile]",0.041,did not exceed that of the vehicle control group,produced substantial hair growth,
"CCCCC(COc1ccc(C#N)c(C(F)(F)F)c1)C(C)O (stereo not shown) [Example 15, 4-[2-(1-Hydroxy-ethyl)-hexyloxy]-2-tri-fluoromethyl-benzonitrile]",,,,0.21
